ChEMBL document CHEMBL4813938, “Astragaloside IV Improves Tibial Defect in Rats and Promotes Proliferation and Osteogenic Differentiation of hBMSCs through MiR-124-3p.1/STAT3 Axis” (J Nat Prod, 2021)
The source made the active and inactive calls. No cut-off for these calls is given here.

Assays:
Rattus norvegicus [1] = assay: Induction of tibial bone defect regeneration in ip dosed Lewis rat assessed as increase in Tb.N of tibial bone administered for 10 consecutive days by microcomputed tomography method; assay type: functional, organism-based; settings: dose 0.16-4 g/Kg, time 10.0 day
Rattus norvegicus [2] = assay: Induction of tibial bone defect regeneration in ip dosed Lewis rat assessed as decrease in Tb.Sp of tibial bone administered for 10 consecutive days by microcomputed tomography method; assay type: functional, organism-based; settings: dose 0.16-4 g/Kg, time 10.0 day
HBMSC [3] = assay: Induction of osteogenic differentiation in human BMSCs overexpressing miR-124-3p.1 assessed as increase in osteogenic medium-induced RUNX2 mRNA expression level at 160 mg/ml by RT-qPCR analysis; assay type: functional, tissue-based
HBMSC [4] = assay: Induction of osteogenic differentiation in human BMSCs overexpressing miR-124-3p.1 assessed as increase in alkaline phosphatase activity at 160 mg/ml incubated for 21 days under osteogenic conditions by ELISA; assay type: functional, tissue-based; settings: time 21.0 day
HBMSC [5] = assay: Induction of osteogenic differentiation in human BMSCs overexpressing miR-124-3p.1 assessed as increase in osteogenic medium-induced RUNX2 protein expression level at 160 mg/ml by Western blot analysis; assay type: functional, tissue-based
HBMSC [6] = assay: Induction of osteogenic differentiation in human BMSCs assessed as increase in osteogenic medium-induced matrix mineralization by measuring calcium deposition by Alizarin Red S staining-based microscopic analysis; assay type: functional, tissue-based; settings: dose 80-320 mg/ml
HBMSC [7] = assay: Induction of osteogenic differentiation in human BMSCs assessed as increase in osteogenic medium-induced Smad4 protein expression level by Western blot analysis; assay type: functional, tissue-based; settings: dose 80-320 mg/ml
HBMSC [8] = assay: Induction of osteogenic differentiation in human BMSCs overexpressing miR-124-3p.1 assessed as increase in osteogenic medium-induced Smad4 mRNA expression level at 160 mg/ml by RT-qPCR analysis; assay type: functional, tissue-based
HBMSC [9] = assay: Induction of cell cycle arrest in human BMSCs overexpressing miR-124-3p.1 assessed as accumulation of cells at S phase at 160 mg/ml under osteogenic conditions by PI staining based flow cytometric analysis; assay type: functional, tissue-based
Rattus norvegicus [10] = assay: Induction of tibial bone defect regeneration in ip dosed Lewis rat assessed as increase in Conn.D of tibial bone administered for 10 consecutive days by microcomputed tomography method; assay type: functional, organism-based; settings: dose 0.16-4 g/Kg, time 10.0 day
HBMSC [11] = assay: Induction of osteogenic differentiation in human BMSCs overexpressing miR-124-3p.1 assessed as increase in cell viability at 160 mg/ml incubated for 72 hrs under osteogenic conditions by MTT assay; assay type: functional, tissue-based
HBMSC [12] = assay: Induction of osteogenic differentiation in human BMSCs overexpressing miR-124-3p.1 assessed as increase in osteogenic medium-induced matrix mineralization by measuring calcium deposition at 160 mg/ml by Alizarin Red S staining-based microscopic analysis; assay type: functional, tissue-based
HBMSC [13] = assay: Induction of osteogenic differentiation in human BMSCs assessed as increase in osteogenic medium-induced RUNX2 mRNA expression level by RT-qPCR analysis; assay type: functional, tissue-based
HBMSC [14] = assay: Induction of osteogenic differentiation in human BMSCs overexpressing miR-124-3p.1 assessed as increase in osteogenic medium-induced Smad4 protein expression level at 160 mg/ml by Western blot analysis; assay type: functional, tissue-based
HBMSC [15] = assay: Induction of cell cycle arrest in human BMSCs overexpressing miR-124-3p.1 assessed as accumulation of cells at G2/M phase at 160 mg/ml under osteogenic conditions by PI staining based flow cytometric analysis; assay type: functional, tissue-based
Rattus norvegicus [16] = assay: Induction of tibial bone defect regeneration in ip dosed Lewis rat assessed as alleviation of bone injury administered for 10 consecutive days by HE staining based assay; assay type: functional, organism-based; settings: dose 0.16-4 g/Kg, time 10.0 day
HBMSC [17] = assay: Induction of osteogenic differentiation in human BMSCs assessed as increase in osteogenic medium-induced OCN mRNA expression level by RT-qPCR analysis; assay type: functional, tissue-based; settings: dose 80-320 mg/ml
Rattus norvegicus [18] = assay: Induction of tibial bone defect regeneration in ip dosed Lewis rat assessed as […] in STAT3 mRNA expression level administered for 10 consecutive days by RT-qPCR analysis; assay type: functional, organism-based; settings: dose 0.16-4 g/Kg, time 10.0 day
HBMSC [19] = assay: Induction of osteogenic differentiation in human BMSCs assessed as increase in osteogenic medium-induced OCN protein expression level by Western blot analysis; assay type: functional, tissue-based; settings: dose 80-320 mg/ml
HBMSC [20] = assay: Induction of osteogenic differentiation in human BMSCs assessed as increase in osteogenic medium-induced Smad4 mRNA expression level by RT-qPCR analysis; assay type: functional, tissue-based; settings: dose 80-320 mg/ml
HBMSC [21] = assay: Induction of cell cycle arrest in human BMSCs assessed as accumulation of cells at G2/M phase under osteogenic conditions by PI staining based flow cytometric analysis; assay type: functional, tissue-based; settings: dose 80-320 mg/ml
HBMSC [22] = assay: Induction of osteogenic differentiation in human BMSCs overexpressing miR-124-3p.1 assessed as increase in osteogenic medium-induced OCN protein expression level at 160 mg/ml by Western blot analysis; assay type: functional
HBMSC [23] = assay: Induction of osteogenic differentiation in human BMSCs assessed as increase in osteogenic medium-induced RUNX2 protein expression level by Western blot analysis; assay type: functional, tissue-based; settings: dose 80-320 mg/ml
Rattus norvegicus [24] = assay: Induction of tibial bone defect regeneration in ip dosed Lewis rat assessed as increase in BMD of tibial bone administered for 10 consecutive days by microcomputed tomography method; assay type: functional, organism-based; settings: dose 0.16-4 g/Kg, time 10.0 day
Rattus norvegicus [25] = assay: Induction of tibial bone defect regeneration in ip dosed Lewis rat assessed as increase in BV/TV of tibial bone administered for 10 consecutive days by microcomputed tomography method; assay type: functional, organism-based; settings: dose 0.16-4 g/Kg, time 10.0 day
Rattus norvegicus [26] = assay: Induction of tibial bone defect regeneration in ip dosed Lewis rat assessed as increase in Tb.Th of tibial bone administered for 10 consecutive days by microcomputed tomography method; assay type: functional, organism-based; settings: dose 0.16-4 g/Kg, time 10.0 day
HBMSC [27] = assay: Induction of osteogenic differentiation in human BMSCs assessed as increase in cell viability incubated for 72 hrs under osteogenic conditions by MTT assay; assay type: functional, tissue-based; settings: dose 80-320 mg/ml
Rattus norvegicus [28] = assay: Induction of tibial bone defect regeneration in ip dosed Lewis rat assessed as […] in STAT3 protein expression level administered for 10 consecutive days by Western blotting analysis; assay type: functional, organism-based; settings: dose 0.16-4 g/Kg, time 10.0 day
HBMSC [29] = assay: Induction of cell cycle arrest in human BMSCs assessed as accumulation of cells at S phase under osteogenic conditions by PI staining based flow cytometric analysis; assay type: functional, tissue-based; settings: dose 80-320 mg/ml
HBMSC [30] = assay: Induction of cell cycle arrest in human BMSCs assessed as decrease in cells at G0/G1 phase under osteogenic conditions by PI staining based flow cytometric analysis; assay type: functional; settings: dose 80-320 mg/ml
Rattus norvegicus [31] = assay: Induction of tibial bone defect regeneration in ip dosed Lewis rat assessed as reduction in […] mRNA expression level administered for 10 consecutive days by RT-qPCR analysis; assay type: functional, organism-based; settings: dose 0.16-4 g/Kg, time 10.0 day
HBMSC [32] = assay: Induction of osteogenic differentiation in human BMSCs assessed as increase in alkaline phosphatase activity incubated for 21 days under osteogenic conditions by ELISA; assay type: functional, tissue-based; settings: dose 80-320 mg/ml, time 21.0 day
HBMSC [33] = assay: Induction of osteogenic differentiation in human BMSCs overexpressing miR-124-3p.1 assessed as increase in osteogenic medium-induced OCN mRNA expression level at 160 mg/ml by RT-qPCR analysis; assay type: functional, tissue-based
HBMSC [34] = assay: Induction of osteogenic differentiation in human BMSCs assessed as down regulation of miR-124-3p.1 mRNA expression level at 160 mg/ml under osteogenic condition by RT-qPCR analysis; assay type: functional, tissue-based
HBMSC [35] = assay: Induction of cell cycle arrest in human BMSCs overexpressing miR-124-3p.1 assessed as decrease in cells at G0/G1 phase at 160 mg/ml under osteogenic conditions by PI staining based flow cytometric analysis; assay type: functional

`CC(C)(O)[C@@H]1CC[C@](C)([C@H]2[C@@H](O)C[C@@]3(C)[C@@H]4C[C@H](O[C@@H]5O[C@H](CO)[C@@H](O)[C@H](O)[C@H]5O)[C@H]5C(C)(C)[C@@H](O[C@@H]6OC[C@@H](O)[C@H](O)[C@H]6O)CC[C@@]56C[C@@]46CC[C@]23C)O1` was tested, and the Activity (Rattus norvegicus [1]) was “Dose-Dependent Effect”, the Activity (Rattus norvegicus [2]) was “Dose-Dependent Effect” and the Activity (HBMSC [3]) was “inactive”. The Activity (HBMSC [4]) was “inactive”, the Activity (HBMSC [5]) was “inactive” and the Activity (HBMSC [6]) was “Dose-Dependent Effect”. For the same compound, the Activity (HBMSC [7]) was “Dose-Dependent Effect”, the Activity (HBMSC [8]) was “inactive” and the Activity (HBMSC [9]) was “inactive”. For the same compound, the Activity (Rattus norvegicus [10]) was “Dose-Dependent Effect”, the Activity (HBMSC [11]) was “inactive” and the Activity (HBMSC [12]) was “inactive”. For the same compound, the Activity (HBMSC [13]) was “Dose-Dependent Effect”, the Activity (HBMSC [14]) was “inactive” and the Activity (HBMSC [15]) was “inactive”. For the same compound, the Activity (Rattus norvegicus [16]) was “Dose-Dependent Effect”, the Activity (HBMSC [17]) was “Dose-Dependent Effect” and the Activity (Rattus norvegicus [18]) was “Dose-Dependent Effect”. The Activity (HBMSC [19]) was “Dose-Dependent Effect”, the Activity (HBMSC [20]) was “Dose-Dependent Effect” and the Activity (HBMSC [21]) was “Dose-Dependent Effect”. For the same compound, the Activity (HBMSC [22]) was “inactive”, the Activity (HBMSC [23]) was “Dose-Dependent Effect” and the Activity (Rattus norvegicus [24]) was “Dose-Dependent Effect”. The Activity (Rattus norvegicus [25]) was “Dose-Dependent Effect”, the Activity (Rattus norvegicus [26]) was “Dose-Dependent Effect” and the Activity (HBMSC [27]) was “Dose-Dependent Effect”. For the same compound, the Activity (Rattus norvegicus [28]) was “Dose-Dependent Effect”, the Activity (HBMSC [29]) was “Dose-Dependent Effect” and the Activity (HBMSC [30]) was “Dose-Dependent Effect”. For the same compound, the Activity (Rattus norvegicus [31]) was “Dose-Dependent Effect”, the Activity (HBMSC [32]) was “Dose-Dependent Effect” and the Activity (HBMSC [33]) was “inactive”. For the same compound, the Activity (HBMSC [34]) was “Active” and the Activity (HBMSC [35]) was “inactive”.
